Earlier results on one compound are cited in patent US20250302824A1, “IN SITU READY-TO-USE INJECTION FORMULATIONS OF POSACONAZOLE FREE OF CYCLODEXTRIN AND ITS DERIVATIVES” (Hefei Cosource Pharmaceuticals Co., Ltd, priority 2024, published 2025).

Converted amounts (≈) assume the structure as drawn. Read-outs that look alike come from different tables or passages of the source.

In the case of `CC[C@@H]([C@H](C)O)n1ncn(-c2ccc(N3CCN(c4ccc(OC[C@@H]5CO[C@@](Cn6cncn6)(c6ccc(F)cc6F)C5)cc4)CC3)cc2)c1=O` [Posaconazole], the solubility is, setting by setting: (at pH 1) 800 µg/mL (≈ 1140 µM); (in neutral and alkaline solutions) “less than 1 μg/ml”.

By solubility is commonly meant how much of the substance goes into solution per volume.
